In ChEMBL document CHEMBL1909588, “Synthesis and in vitro antitubercular evaluation of novel sansanmycin derivatives” (2011):
≈ marks a conversion by molar mass, not a printed value.

These molecules were tested on Mycobacterium tuberculosis (assay: Antitubercular activity against Mycobacterium tuberculosis H37Rv […] by microplate alamar blue assay).
Format: functional

Structure (SMILES)	MIC [µg/mL]
CSCCC(NC(=O)NC(Cc1c[nH]c2ccccc12)C(=O)O)C(=O)NC(C(=O)N/C=C1\C[C@@H](O)[C@H](n2ccc(=O)[nH]c2=O)O1)C(C)N(C)C(=O)C(Cc1cccc(O)c1)NC(=O)c1ccccc1 (stereo not given in full)	> 16
CSCCC(NC(=O)NC(Cc1c[nH]c2ccccc12)C(=O)O)C(=O)NC(C(=O)N/C=C1\C[C@@H](O)[C@H](n2ccc(=O)[nH]c2=O)O1)C(C)N(C)C(=O)C(Cc1cccc(O)c1)NS(=O)(=O)c1ccccc1 (stereo not given in full)	> 16
CSCCC(NC(=O)NC(Cc1c[nH]c2ccccc12)C(=O)O)C(=O)NC(C(=O)N/C=C1\C[C@@H](O)[C@H](n2ccc(=O)[nH]c2=O)O1)C(C)N(C)C(=O)C(Cc1cccc(O)c1)NC(=O)OCc1ccccc1 (stereo not given in full)	> 16
CSCCC(NC(=O)NC(Cc1c[nH]c2ccccc12)C(=O)O)C(=O)NC(C(=O)N/C=C1\C[C@@H](O)[C@H](n2ccc(=O)[nH]c2=O)O1)C(C)N(C)C(=O)C(N)Cc1cccc(O)c1 (stereo not given in full) [SANSANMYCIN A]	16 (≈ 18.5 µM)
CSCCC(NC(=O)NC(Cc1c[nH]c2ccccc12)C(=O)O)C(=O)NC(C(=O)N/C=C1\C[C@@H](O)[C@H](n2ccc(=O)[nH]c2=O)O1)C(C)N(C)C(=O)C(Cc1cccc(OC(C)=O)c1)NC(C)=O (stereo not given in full)	> 16
COC(=O)NC(Cc1cccc(O)c1)C(=O)N(C)C(C)C(NC(=O)C(CCSC)NC(=O)NC(Cc1c[nH]c2ccccc12)C(=O)O)C(=O)N/C=C1\C[C@@H](O)[C@H](n2ccc(=O)[nH]c2=O)O1 (stereo not given in full)	> 16
COc1ccc(S(=O)(=O)NC(Cc2cccc(O)c2)C(=O)N(C)C(C)C(NC(=O)C(CCSC)NC(=O)NC(Cc2c[nH]c3ccccc23)C(=O)O)C(=O)N/C=C2\C[C@@H](O)[C@H](n3ccc(=O)[nH]c3=O)O2)cc1 (stereo not given in full)	> 16
CCCNC(Cc1cccc(O)c1)C(=O)N(C)C(C)C(NC(=O)C(CCSC)NC(=O)NC(Cc1c[nH]c2ccccc12)C(=O)O)C(=O)N/C=C1\C[C@@H](O)[C@H](n2ccc(=O)[nH]c2=O)O1 (stereo not given in full)	> 16
CCOC(=O)NC(Cc1cccc(O)c1)C(=O)N(C)C(C)C(NC(=O)C(CCSC)NC(=O)NC(Cc1c[nH]c2ccccc12)C(=O)O)C(=O)N/C=C1\C[C@@H](O)[C@H](n2ccc(=O)[nH]c2=O)O1 (stereo not given in full)	> 16
CSCCC(NC(=O)NC(Cc1c[nH]c2ccccc12)C(=O)O)C(=O)NC(C(=O)N/C=C1\C[C@@H](O)[C@H](n2ccc(=O)[nH]c2=O)O1)C(C)N(C)C(=O)C(Cc1cccc(O)c1)NS(C)(=O)=O (stereo not given in full)	> 16
CCNC(Cc1cccc(O)c1)C(=O)N(C)C(C)C(NC(=O)C(CCSC)NC(=O)NC(Cc1c[nH]c2ccccc12)C(=O)O)C(=O)N/C=C1\C[C@@H](O)[C@H](n2ccc(=O)[nH]c2=O)O1 (stereo not given in full)	> 16
CCCCNC(Cc1cccc(O)c1)C(=O)N(C)C(C)C(NC(=O)C(CCSC)NC(=O)NC(Cc1c[nH]c2ccccc12)C(=O)O)C(=O)N/C=C1\C[C@@H](O)[C@H](n2ccc(=O)[nH]c2=O)O1 (stereo not given in full)	> 16
CCCCCNC(Cc1cccc(O)c1)C(=O)N(C)C(C)C(NC(=O)C(CCSC)NC(=O)NC(Cc1c[nH]c2ccccc12)C(=O)O)C(=O)N/C=C1\C[C@@H](O)[C@H](n2ccc(=O)[nH]c2=O)O1 (stereo not given in full)	> 16
CO[C@H]1/C=C/O[C@@]2(C)Oc3c(C)c(O)c4c(O)c(c(/C=N/N5CCN(C)CC5)c(O)c4c3C2=O)NC(=O)/C(C)=C\C=C\[C@H](C)[C@H](O)[C@@H](C)[C@@H](O)[C@@H](C)[C@H](OC(C)=O)[C@@H]1C [RIFAMPIN]	0.12 (≈ 0.146 µM)
CSCCC(NC(=O)NC(Cc1c[nH]c2ccccc12)C(=O)O)C(=O)NC(C(=O)N/C=C1\C[C@@H](O)[C@H](n2ccc(=O)[nH]c2=O)O1)C(C)N(C)C(=O)C(Cc1cccc(O)c1)N(C)C (stereo not given in full)	16 (≈ 17.9 µM)
NNC(=O)c1ccncc1 [ISONIAZID]	0.05 (≈ 0.365 µM)
CSCCC(NC(=O)NC(Cc1c[nH]c2ccccc12)C(=O)O)C(=O)NC(C(=O)N/C=C1\C[C@@H](OC(C)=O)[C@H](n2ccc(=O)[nH]c2=O)O1)C(C)N(C)C(=O)C(Cc1cccc(OC(C)=O)c1)NC(C)=O (stereo not given in full)	> 16
CSCCC(NC(=O)NC(Cc1c[nH]c2ccccc12)C(=O)O)C(=O)NC(C(=O)N/C=C1\C[C@@H](O)[C@H](n2ccc(=O)[nH]c2=O)O1)C(C)N(C)C(=O)C(Cc1cccc(O)c1)NC(=O)CCl (stereo not given in full)	> 16
CSCCC(NC(=O)NC(Cc1c[nH]c2ccccc12)C(=O)O)C(=O)NC(C(=O)N/C=C1\C[C@@H](O)[C@H](n2ccc(=O)[nH]c2=O)O1)C(C)N(C)C(=O)C(Cc1cccc(O)c1)NS(=O)(=O)c1ccc(C)cc1 (stereo not given in full)	> 16
CSCCC(NC(=O)NC(Cc1c[nH]c2ccccc12)C(=O)O)C(=O)NC(C(=O)N/C=C1\C[C@@H](O)[C@H](n2ccc(=O)[nH]c2=O)O1)C(C)N(C)C(=O)C(Cc1cccc(O)c1)NC(C)C (stereo not given in full)	8 (≈ 8.83 µM)
